Measured values from patent US20230286947A1, “COMPLEMENT FACTOR B INHIBITOR, AND PHARMACEUTICAL COMPOSITION, PREPARATION METHOD AND USE THEREOF” (SHANGHAI MEIYUE BIOTECH DEVELOPMENT CO. LTD, priority 2020, published 2023).

Experiments:
[1] = PK/PD experiment of single intragastric administration to cynomolgus monkeys: plasma concentration; type: in vivo; conditions: same dose (3 & 30 mpk), FIG. 1
Protocol: Cynomolgus monkeys were used. Each group consisted of 3 cynomolgus monkeys, and they were given the control compound and the compound of Example 5 (3 & 30 mpk) by intragastric administration. Blood was collected at different time points and analyzed for drug concentration and complement activity. The drug concentration in plasma was determined by LC-MS/MS. The complement activity in serum was determined using a wieslab assay (Svar Life Science AB, COMPL AP330 RUO) kit, Normal Human Serum (Complement Technology, NHS).

[2] = Liver microsomal stability experiment (human); type: in vitro ADME; conditions: for MMS (human) Remaining (T = 90 min): human liver microsomes; for half-life at 1 µM: pooled liver microsomes, pH 7.4, NADPH, read-out: MMS (human) T1/2
Protocol: (§1) A 0.1 M solution of potassium dihydrogen phosphate in distilled water (comprising 1 mM ethylenediaminetetraacetic acid) was taken. Then the pH was adjusted to 7.4 with the 0.1 M solution of dipotassium phosphate in distilled water (comprising 1 mM ethylenediaminetetraacetic acid).
Human – Pooled Human Liver Microsomes (Mongolian), Cat. No.: LM-R-02M, RILD Research Institute for Liver Diseases (Shanghai) Co. Ltd.
(§2) A 10 mM solution of each of the control compound and test compounds was prepared in DMSO. Then 10 μL of the solution was added to 190 μL of acetonitrile to form a 0.5 mM mother liquor. 1.5 μL of the 0.5 mM compound mother liquor was measured out, and […] of 20 mg/mL liver microsomes and 479.75 μL of the buffer were added. (The actual preparation amount can be adjusted according to use).
(§3) A 10 mg/mL solution of reduced coenzyme II (NADPH) was prepared in the buffer. A 96-well plate was placed on ice. Wells corresponding to different time points (0, 10, 30, 60 and 90 min, Non-NADPH) were set for each compound. 30 μL of the working solution was added to each well. For 0 min wells, 155 μL of glacial acetonitrile solution (the internal standard concentration was 1 μM) was added first, and after the mixtures were well mixed using a pipet, 15 μL of NADPH (10 mg/mL) was added. Before the reactions were started, the 96-well plate was pre-incubated on a microplate shaker at 37° C. for 5 min. Then 15 μL of NADPH (10 mg/mL) was added to each well to start the metabolic reactions. After the reactions were carried out for 10, 30, 60 and 90 min, 155 μL of glacial acetonitrile solution (the internal standard concentration was 1 μM) was added to the corresponding wells to terminate the reactions. After 90 min, the reaction in the Non-NADPH system was terminated by adding 155 μL of glacial acetonitrile solution (the internal standard concentration was 1 μM). After the reaction was completed, the 96-well plate was shaken on a microplate shaker (600 rpm) for 10 min and then centrifuged at 4° C. at 4000 g for 15 min. 50 μL of the supernatant was added to a new 2 mL 96-well plate, and 300 μL of deionized water was added. The mixture was analyzed on an AB SCIEX ExionLC-Triple Quad 5500 high performance liquid chromatograph-mass spectrometer. The Analyst 1.6.3 software was used.

[3] = Liver microsomal stability experiment (monkey); type: in vitro ADME; conditions: cynomolgus monkey liver microsomes; for half-life at 1 µM: pH 7.4, NADPH, read-out: MMS (monkey) T1/2
Protocol: as §1
Monkey: Cynomolgus Monkey Liver Microsomes, Cat. No.: LM-SXH-02M, RILD Research Institute for Liver Diseases (Shanghai) Co. Ltd.
as §2, §3

[4] = molecular target: T1, complement factor B in human serum (Homo sapiens, UniProt P00751); assay: Complement hemolytic activity assay (rabbit erythrocytes, normal human serum); type: cell-based; conditions: for IC50: rabbit erythrocytes, normal human serum, 37° C., read-out: Hemolysis IC50
T1 construct: from tissue; host or cells: normal human serum (NHS)
T1 sequence (P00751 26-764): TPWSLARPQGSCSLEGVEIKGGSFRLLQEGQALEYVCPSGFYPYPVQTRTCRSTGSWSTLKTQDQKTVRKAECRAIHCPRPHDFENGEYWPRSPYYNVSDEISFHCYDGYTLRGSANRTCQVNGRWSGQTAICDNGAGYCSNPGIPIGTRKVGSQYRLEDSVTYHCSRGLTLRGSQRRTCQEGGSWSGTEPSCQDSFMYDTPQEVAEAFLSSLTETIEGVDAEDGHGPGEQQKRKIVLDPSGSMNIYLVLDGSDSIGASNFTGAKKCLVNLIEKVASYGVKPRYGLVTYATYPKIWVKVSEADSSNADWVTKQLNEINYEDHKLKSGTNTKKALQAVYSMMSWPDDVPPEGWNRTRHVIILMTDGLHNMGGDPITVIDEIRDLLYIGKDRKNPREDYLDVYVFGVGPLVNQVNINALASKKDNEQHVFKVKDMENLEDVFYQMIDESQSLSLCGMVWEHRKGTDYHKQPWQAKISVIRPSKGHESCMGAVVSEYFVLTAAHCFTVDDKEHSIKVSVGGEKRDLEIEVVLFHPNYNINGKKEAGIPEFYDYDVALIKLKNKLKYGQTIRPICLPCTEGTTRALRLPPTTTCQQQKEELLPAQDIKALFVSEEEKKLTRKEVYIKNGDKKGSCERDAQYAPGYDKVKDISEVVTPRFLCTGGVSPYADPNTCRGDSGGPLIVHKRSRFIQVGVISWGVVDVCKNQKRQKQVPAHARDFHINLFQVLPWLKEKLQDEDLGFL
Protocol: The hemolysis experiment was carried out by referring to the description in Xuan Yuan et al., Haematologica. […] Prior to the experiment, the optimal concentration of normal human serum (NHS) required to achieve 100% lysis of rabbit erythrocytes (REs) was obtained by titration testing. […] REs (collected from healthy Japanese big-ear white rabbits) freshly suspended in a GVBO buffer comprising 10 mM Mg-EGTA were added to a final concentration of 1×10^8 cells/mL and incubated at 37° C. for 30 min. A GVBO buffer comprising 10 mM Mg-EGTA and comprising NHS and RE but no test compound was used as a positive control group (100% lysis). A GVBO buffer comprising 10 mM Mg-EGTA and comprising inactivated NHS (heated at 56° C. for 30 min or at 65° C. for 5 min) and RE but no test compound was used as a negative control group (0% lysis). The samples were centrifuged at 2000 g for 5 min, and the supernatant was collected. Absorbance at 415 nm (A415) was measured using a microplate reader (Molecular Devices, SpectraMax i3X). IC50 values were calculated from percent hemolysis as a function of test compound concentration by non-linear regression.

[5] = Liver microsomal stability experiment (rat); type: in vitro ADME; conditions: for half-life at 1 µM: SD, pH 7.4, NADPH, read-out: MMS (rat) T1/2; for half-life at 1 µM / MMS (rat) Remaining (T = 90 min): rat liver microsomes; for liver microsomal stability (in words): statement covers rat, monkey and human liver microsomes (Table 3)
Protocol: as §1
Rat: SD Rat Liver Microsomes, Cat. No.: LM-DS-02M, RILD Research Institute for Liver Diseases (Shanghai) Co. Ltd.
as §2, §3

[6] = PK experiment of single intragastric administration to rats; type: in vivo; conditions: male, Wistar Han, plasma, po, rat, 3 mg/kg, mean
Protocol: Six- to nine-week-old male Wistar han rats (from Shanghai Sippe-Bk Lab Animal Co., Ltd.) were fasted overnight. Each group consisted of 3 rats, and they were given the control compound, the compound of Example 5 and the compound of Example 6, respectively, by intragastric administration at 3 mg/kg at a volume of 10 mL/kg. 0.2 mL of blood was collected from the jugular vein at each time point, anticoagulated with EDTA-K2 and immediately centrifuged at 4000 rpm at 4° C. for 5 min. The supeatant was collected. The samples were cryopreserved in a freezer at −80° C. before analysis. Time points of blood collection: before administration, 5 min 15 min, 30 min, 1 h, 2 h, 4 h, 7 h and 24 h. […] After blood collection at all of the time points was completed, the animals were euthanized. The plasma samples were analyzed by LC-MS/MS. The data were used to calculate kinetic parameters (Tmax, Cmax, T½ and AUC) in the WinNonlin software.

Complement factor B = Complement factor B (Homo sapiens, UniProt P00751); assay: Optical surface plasmon resonance (SPR) binding capacity assay; conditions: for binding capacity to the target protein compared with the control compound: at a concentration of 500 μM; for Rmax (RU): test compound 500 μM, 25° C., 1:1 binding model
Complement factor B, sequence (P00751 26-764): as above
Protocol: An SPR experiment was carried out at 25° C. In the experiment, a PBS buffer supplemented with 0.05% (v/v) P20 and 5% DMSO was used as a running buffer, and the analytical instrument Biacore 8K of GE Healthcare was used. A CM7 ship (GE Healthcare) was activated with 400 mM EDC and 100 mM NHS at a flow rate of 30 μL/min for 420 s. […] Then the assay chip was treated with 1 M ethanolamine hydrochloride at a flow rate of 10 μL/min for 300 s for chip blocking. The concentration of the test compound was 500 μM, the binding time was 120 s, and the dissociation time was 300 s. Data analysis was performed using a 1:1 binding model (Biacore Insight Evalution Software, Version 2.0.15.12933).

[7] = tested on: Streptococcus-induced rheumatoid arthritis; assay: Streptococcus-induced rheumatoid arthritis (RA) model in rats; type: in vivo, Lewis rats; conditions: 15 mpk intragastric daily for 25 days, FIG. 3
Protocol: In the experiment, six- to nine-week-old female Lewis rats (Beijing Vital River) were used. Each group consisted of 6 rats, and they were given the cell wall peptidoglycan complexes of Streptococcus and several other species of bacteria by intraperitoneal administration (2-3 mg per rat) on D1, and were given the control compound (15 mpk) and Example 5 (15 mpk) by intragastric administration daily for 25 consecutive days. The arthritis in rats was scored in different phases. The scoring criteria are as follows: Scoring according to the degree of lesion (redness and swelling) was performed on a scale of 0-4 points, with a maximum score of 4 for each limb and a total maximum score of 16 for each animal's limbs. The scoring criteria are as follows: 0 points: no redness and swelling; 1 point: 1-2 red and swollen interphalangeal joints; 2 points: 3-4 red and swollen interphalangeal joints; 3 points: more than 4 red and swollen interphalangeal joints; 4 points: severe redness and swelling in toes or fingers to ankle joints or wrist joints.

COc1cc(C)c2[nH]ccc2c1CN1CC[C@H](OCC2CC2)C[C@H]1c1ccc(C(=O)O)cc1 [Example 5]
mean plasma concentration compared with the control compound [1]: significantly higher mean plasma concentration than the control compound
MMS (human) Remaining (T = 90 min) [2]: 91.04%
half-life at 1 µM [2]: 11.2 h
MMS (monkey) Remaining (T = 90 min) [3]: 93.32%
half-life at 1 µM [3]: 12.8 h
inhibitory activity against complement factor B in human serum compared with the control compound ([4]; hemolysis of rabbit erythrocytes): significantly better inhibitory activity against complement factor B in human serum than the control compound
IC50 [4]: 87.9 nM
half-life at 1 µM [5]: 9.13 h
MMS (rat) Remaining (T = 90 min) [5]: 89.14%
liver microsomal stability (in words) [5]: more significant liver microsomal stability
AUC(0-inf) [6]: 3280 ng·h/mL
AUC(0-t) [6]: 3120 ng·h/mL
Cmax [6]: 1920 ng/mL
Tmax [6]: 0.25 h
half-life [6]: 1.58 h
binding capacity to the target protein compared with the control compound (Complement factor B): significantly better than the control compound
Rmax (RU) (Complement factor B): 274.2 RU
arthritis score [7]: can improve the arthritis score
effect on arthritis score compared with the control compound [7]: significantly better effect than the control compound

CCOC1CC(c2ccc(C(=O)O)cc2)N(Cc2c(OC)cc(C)c3[nH]ccc23)C2CC12 (stereo not shown) [Example 23]
IC50 [4]: 853 nM

COc1cc(C)c2[nH]ccc2c1CN1CCC(C(F)F)CC1c1ccc(C(=O)O)cc1 (stereo not shown) [Example 10]
IC50 [4]: 611 nM
Rmax (RU) (Complement factor B): 30.7 RU

COc1cc(C)c2[nH]ccc2c1CN1CC[C@H](OC2CC(F)(F)C2)C[C@H]1c1ccc(C(=O)O)cc1 [Example 16]
IC50 [4]: 188 nM

COc1cc(C)c2[nH]ccc2c1CN1CC[C@H](OCC2CC2)C[C@H]1c1ccc(-c2nn[nH]n2)cc1 [Example 26]
IC50 [4]: 319 nM

COc1cc(C)c2[nH]ccc2c1CN1CC[C@H](OC2CC2)C[C@H]1c1ccc(C(=O)O)cc1 [Example 3]
IC50 [4]: 216 nM

COc1cc(C)c2[nH]ccc2c1CN1CC[C@H](OC2CCC2)C[C@H]1c1ccc(C(=O)O)cc1 [Example 4]
MMS (human) Remaining (T = 90 min) [2]: 84.79%
half-life at 1 µM [2]: 6.94 h
MMS (monkey) Remaining (T = 90 min) [3]: 80.68%
half-life at 1 µM [3]: 6.07 h
IC50 [4]: 280 nM
half-life at 1 µM [5]: 3.68 h
MMS (rat) Remaining (T = 90 min) [5]: 72.23%
liver microsomal stability (in words) [5]: more significant liver microsomal stability
Rmax (RU) (Complement factor B): 29.1 RU

COc1cc(C)c2[nH]ccc2c1CN1CC[C@H](OCC2CC2(F)F)C[C@H]1c1ccc(C(=O)O)cc1 (stereo partly shown) [Example 25]
IC50 [4]: 234 nM

COc1cc(C)c2[nH]ccc2c1CN1CC[C@H](OC(F)(F)F)C[C@H]1c1ccc(C(=O)O)cc1 [Example 7]
IC50 [4]: 228 nM
Rmax (RU) (Complement factor B): 21.6 RU

COc1cc(C)c2[nH]ccc2c1CN1CCC(C(F)(F)F)CC1c1ccc(C(=O)O)cc1 (stereo not shown) [Example 9]
IC50 [4]: 725 nM
Rmax (RU) (Complement factor B): 23.3 RU

COc1cc(C)c2[nH]ccc2c1CN1CCC2CC2[C@H]1c1ccc(C(=O)O)cc1 (stereo partly shown) [Example 22]
IC50 [4]: 184 nM

CCO[C@H]1CCN(Cc2c(OC)cc(C)c3[nH]ccc23)[C@H](c2ccc(C(=O)O)cc2)C1 [Control compound, reference compound]
AUC(0-inf) [6]: 2730 ng·h/mL
AUC(0-t) [6]: 2530 ng·h/mL
Cmax [6]: 784 ng/mL
Tmax [6]: 0.33 h
half-life [6]: 2.42 h
arthritis score [7]: can improve the arthritis score

COc1cc(C)c2[nH]ccc2c1CN1CCC2(CC1c1ccc(C(=O)O)cc1)CC2(F)F (stereo not shown) [Example 8]
IC50 [4]: 358 nM
Rmax (RU) (Complement factor B): 47.7 RU

COc1cc(C)c2[nH]ccc2c1CN1CC[C@H](OCC2CCC2)C[C@H]1c1ccc(C(=O)O)cc1 [Example 6]
MMS (human) Remaining (T = 90 min) [2]: 74.57%
half-life at 1 µM [2]: 3.96 h
MMS (monkey) Remaining (T = 90 min) [3]: 60.37%
half-life at 1 µM [3]: 2.17 h
IC50 [4]: 217 nM
half-life at 1 µM [5]: 0.986 h
MMS (rat) Remaining (T = 90 min) [5]: 33.55%
liver microsomal stability (in words) [5]: more significant liver microsomal stability
AUC(0-inf) [6]: 2260 ng·h/mL
AUC(0-t) [6]: 2190 ng·h/mL
Cmax [6]: 1180 ng/mL
Tmax [6]: 0.25 h
half-life [6]: 2.28 h
binding capacity to the target protein compared with the control compound (Complement factor B): significantly better than the control compound
Rmax (RU) (Complement factor B): 106.5 RU

COc1cc(C)c2[nH]ccc2c1CN1CCC(C)(F)CC1c1ccc(C(=O)O)cc1 (stereo not shown) [Example 17]
IC50 [4]: 391 nM
